Reference: US20200299251A1, “FURAN SKELETON-CONTAINING IMINOGUANIDINE DERIVATIVE AS WELL AS PREPARATION AND APPLICATION THEREOF” (SUN YAT-SEN UNIVERSITY, priority 2017, published 2020)

Columns and labels:
[1] = format: physicochemical
[2] = Water solubility of FuBIG salts, UV absorbance of saturated aqueous solutions; details: saturated aqueous solution, UV absorbance at 368 nm
Protocol: The absorbance of the above concentration gradients was determined under this wavelength, and standard curves were plotted to obtain a curve equation Y=14705×−0.0825 (as shown in FIG. 13B).
It was known that the pKa of HCO3^− was 10.32.

[3] = Thermogravimetry infrared experiment; format: physicochemical; details: 10 K/min
Protocol: The temperature range was 25-800° C., and the heating rate was 10 K/min. […] It can be seen from FIG. 9B that this molecule can release water molecules and carbon dioxide molecules under the heating condition, and water molecules and carbon dioxide molecules are nearly released at the same time.

[4] = Equilibrium constants and enthalpy changes of the process of absorbing and releasing carbon dioxide; format: physicochemical
[5] = Release of H2O and CO2 by heating in watch glass under normal pressure (weight loss); format: physicochemical
Protocol: The weight-lost solid was dissolved into water, carbon dioxide gas was introduced, and the above substances were stirred for lh to separate out a yellow solid.
The weight was 2.6 g, and weight loss was 29.7%. The weight-lost solid was dissolved into water, carbon dioxide gas was introduced, and the above substances were stirred for 1 h to separate out a yellow solid.
The weight was 2.46 g, and weight loss was 33.7%. The weight-lost solid was dissolved into water, carbon dioxide gas was introduced, and the above substances were stirred for lh to separate out a yellow solid.
The weight was 2.45 g, and weight loss was 33.7%. The weight-lost solid was dissolved into water, carbon dioxide gas was introduced, and the above substances were stirred for lh to separate out a yellow solid.

[6] = Differential scanning calorimetric experiment; format: physicochemical; details: 30-200° C., 10 K/min
[7] = Determination of pKa by pH titration with NaOH; format: physicochemical
Protocol: 0.077 g of FUBIG hydrochloride and 0.585 g of NaCl were weighed, the volume was metered to 50 mL with ultrapure water, and 26 μL of HCl (36%) was dropwise added. The mixed solution was stirred at 25° C. until the temperature was stabilized. The pH meter was calibrated respectively using potassium hydrogen phthalate (pH 4.00) buffer, mixed phosphate buffer (pH 6.86), sodium tetraborate buffer (pH 9.18), and then titration was conducted with 0.1M NaOH solution. After each titration, the system was stabilized after waiting for 7min, and then the next titration was conducted. The volume and pH value of each titration were recorded.
Plot was made according to the ph-V (mL). […] The same method was used to obtain: 15° C., pKa1=7.79, pKa2=8.90; at 20° C., pKa1=7.68, pKa2=8.82; at 30° C., pKa1=7.49, pKa2=8.66; at 35° C., pKa1=7.31, pKa2=8.59 (as shown in Table 3).

## N=C(N)NN=Cc1ccc(C=NNC(=N)N)o1.O.O.O.O.O=C(O)O
[1]; pH meter
  pH of saturated aqueous solution: 8.48
[1]; saturated aqueous solution, pH 8.48
  concentration of carbonate ion [CO3^2−] in the saturated solution: 1.3(3)×10^−4 M
[2]
  Solubility(FuBIG cation concentration, M): 9.3 (4)×10^−3 M
[3]; 25-800° C.
  temperature at which the weight loss rate is the maximum: 100 °C
  temperature at which water and carbon dioxide molecules are completely lost: 165 °C
[3]; at 165° C.
  weight loss: 36.31%
[4]; FuBIGH2(CO3)(H2O)4 precipitate
  Enthalpy change ΔH: -24.276 kcal/mol
  Equilibrium constant K: 1.63 × 10^7
[5]; heated for 5 h at 100° C.
  weight loss: 33.6%
[5]; heated for 12 h at 70° C.
  weight loss: 29.7%
[5]; heated for 12 h at 120° C.
  weight loss: 33.7%
[5]; heated for 12 h at 180° C.
  weight loss: 33.7%
[6]
  temperature range of release of carbon dioxide and water (DSC): 97.89-109.13 °C

## N=C(N)NN=Cc1ccc(C=NNC(=N)N)o1.O=S(O)O
[2]
  Solubility(FuBIG cation concentration, M): 1.4 (2)×10^−3 M

## Cl.N=C(N)NN=Cc1ccc(C=NNC(=N)N)o1
[2]
  Solubility(FuBIG cation concentration, M): 0.74 (6) M

## N=C(N)NN=Cc1ccc(C=NNC(=N)N)o1.O.O.O=[N+]([O-])O.O=[N+]([O-])O
[2]
  Solubility(FuBIG cation concentration, M): 3.3 (2)×10^−2 M

## N=C(N)N/N=C/c1ccc(/C=N/NC(=N)N)o1 [FuBIG]
[4]; FuBIG dissolution
  Enthalpy change ΔH: 11.76 kcal/mol
  Equilibrium constant K: 4.03 × 10^−1
[4]; FuBIG protonation
  Enthalpy change ΔH: 11.01 kcal/mol
  Equilibrium constant K: 1.91 × 10^−12
[4]; Total CO2 absorbing process
  Enthalpy change ΔH: -27.75 kcal/mol
  Equilibrium constant K: 5.97 × 10^4
[4]; Total CO2 releasing process
  Enthalpy change ΔH: 50.026 kcal/mol
[7]; 15° C.
  pKa1: 7.79
  pKa2: 8.90
[7]; 20° C.
  pKa1: 7.68
  pKa2: 8.82
[7]; 25° C.
  pKa1: 7.57
  pKa2: 8.71
[7]; 30° C.
  pKa1: 7.49
  pKa2: 8.66
[7]; 35° C.
  pKa1: 7.31
  pKa2: 8.59
other
  melting point: 244 to 246 °C
